# Residue numbers refer to the chain shown, from its start. Where a name gives a salt, the structure may show the parent alone.
# Molecular target: T1, Human renin (Homo sapiens, UniProt P00797)
# T1 sequence (P00797 67-406): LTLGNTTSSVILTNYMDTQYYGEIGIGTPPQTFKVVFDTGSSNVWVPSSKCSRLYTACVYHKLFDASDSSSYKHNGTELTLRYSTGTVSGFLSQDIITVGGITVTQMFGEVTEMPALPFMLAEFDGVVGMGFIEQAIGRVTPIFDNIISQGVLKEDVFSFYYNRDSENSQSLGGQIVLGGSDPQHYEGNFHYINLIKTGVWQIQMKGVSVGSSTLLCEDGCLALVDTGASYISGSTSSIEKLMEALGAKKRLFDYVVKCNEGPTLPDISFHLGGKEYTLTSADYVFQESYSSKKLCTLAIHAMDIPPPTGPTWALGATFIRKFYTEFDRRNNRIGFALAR
# Assay: Human renin inhibition, angiotensin I quantified by EIA
# Conditions: read-out: Human renin inhibitory activity: inhibitory activity (%) at 0.1 μM
# Protocol: (6) Measurement of Renin Inhibition Value
# As a substrate for renin activity measurement, the angiotensinogen mentioned in (5) above was used. 1 μl each of the test compound (containing 100% DMSO) was added to each well of a 384-well plate (ABgene). Renin was diluted with a buffer solution for reaction (20 mM sodium phosphate (pH 7.4)) to a concentration of 57 pM, and 14 μl each of the dilution was added to each well. The dilution was left to stand at 37° C. for 10 min, and then 5 μl of each of a 6 μM solution of substrate angiotensinogen was added to each well to initiate the reaction. […] The amount of angiotensin I produced by an enzyme reaction was quantified by Enzyme Immuno Assay (EIA) described below.
# Anti-angiotensin I antibody (Peninsula Laboratories Inc.) diluted 5,000-fold with PBS was added to each well of a 384 well black plate (Nalge Nunc International Co., Ltd.) by 25 μl, and left standing overnight at 4° C. to immobilize the antibody in the plate. The antibody solution was removed, PBS solution (100 μl) containing 1% BSA was added to each well, and the mixture was left standing at room temperature for 2 hr for blocking. The blocking solution was removed, and each well was washed 5 times with 100 μl of 0.05% Tween20-PBS. […] Then, a biotinated angiotensin I solution (AnaSpec, 15 μl) prepared to 1.6 nM with a buffer [20 mM tris-hydrochloric acid (pH 7.4), 150 mM sodium chloride, 0.01% BSA, 0.05% Tween20] was added to each well, mixed with a plate mixer and left standing at room temperature for 1 hr. The solutions were removed from each well, and each well was washed 5 times with 100 μl of 0.05% Tween20-PBS. Horseradish peroxydase Streptavidin (PIERCE Biotecnology inc., 25 μl) diluted to 100 ng/ml with a buffer [20 mM tris-hydrochloric acid (pH 7.4), 150 mM sodium chloride, 0.1% BSA, 0.05% Tween 20] was added to each well and the mixture was left standing at room temperature for 30 min. The solutions were removed from each well, and each well was washed 5 times with 100 μl of 0.05% Tween20-PBS. SuperSignal ELISA femto Maximum Sensitivity Substrate (PIERCE Biotecnology Inc.) was added by 25 μl and luminescence intensity was measured by EnVision (Perkin Elmer Inc.). An analytical curve was drawn from the luminescence intensity of wells containing an angiotensin I standard solution, and the amount of angiotensin I produced by an enzyme reaction was calculated and used as an index of renin activity.
row,SMILES,inhibition at 0.1 µM [%]
1,"COCCCCn1c(C(=O)N(CC(C)C)[C@@H]2CNC[C@H]([C@H](C)O)C2)nc2ccccc21.Cl.Cl [Example 74-1, N-{(3S,5R)-5-[(1S)-1-hydroxyethyl]piperidin-3-yl}-1-(4-methoxybutyl)-N-(2-methylpropyl)-1H-benzimidazole-2-carboxamide dihydrochloride]",94
2,"COCCCCn1c(C(=O)N(CC(C)C)[C@@H]2CNC[C@H]([C@@H](C)O)C2)nc2ccccc21.Cl.Cl [Example 74-2, N-{(3S,5R)-5-[(1R)-1-hydroxyethyl]piperidin-3-yl}-1-(4-methoxybutyl)-N-(2-methylpropyl)-1H-benzimidazole-2-carboxamide dihydrochloride]",96
3,"CC[C@H](O)[C@H]1CNC[C@@H](N(CC(C)C)C(=O)c2nc3ccccc3n2CCCCOC)C1.Cl.Cl [Example 75-1, N-{(3S,5R)-5-[(1S)-1-hydroxypropyl]piperidin-3-yl}-1-(4-methoxybutyl)-N-(2-methylpropyl)-1H-benzimidazole-2-carboxamide dihydrochloride]",95
4,"CC[C@@H](O)[C@H]1CNC[C@@H](N(CC(C)C)C(=O)c2nc3ccccc3n2CCCCOC)C1.Cl.Cl [Example 75-2, N-{(3S,5R)-5-[(1R)-1-hydroxypropyl]piperidin-3-yl}-1-(4-methoxybutyl)-N-(2-methylpropyl)-1H-benzimidazole-2-carboxamide dihydrochloride]",90

# Molecular target: T2, plasma renin activity (PRA) (Macaca fascicularis, UniProt Q6DLS0)
# T2 sequence (Q6DLS0 67-406): T1 sequence (P00797 67-406) with T2A, I148L, S169A
# Assay: not given
# Conditions: male Macaca fascicularis; 1 mg/kg orally in 0.5% methylcellulose; plasma 4 hr after administration; amended with vehicle group
row,SMILES,"Macaca fascicularis plasma renin activity: PPA inhibitory activity (%, n = 3-7) [%]"
1,"COCCCCn1c(C(=O)N(CC(C)C)[C@@H]2CNC[C@H](C(=O)OCc3oc(=O)oc3C)C2)nc2ccccc21 [Example 7, (5-methyl-2-oxo-1,3-dioxol-4-yl)methyl (3R,5S)-5-[{[1-(4-methoxybutyl)-1H-benzimidazol-2-yl]carbonyl}(2-methylpropyl)amino]piperidine-3-carboxylate dihydrochloride]",93
2,"COCCCCn1c(C(=O)N(CC(C)C)[C@@H]2CNC[C@H](C(=O)N3CCOCC3)C2)nc2ccccc21 [Example 10, 1-(4-methoxybutyl)-N-(2-methylpropyl)-N-[(3S,5R)-5-(morpholin-4-ylcarbonyl)piperidin-3-yl]-1H-benzimidazole-2-carboxamide dihydrochloride]",72
3,"COCCCCn1c(C(=O)N(CC(C)C)[C@@H]2CNC[C@H](C(=O)N3CCOCC3)C2)nc2ccc(F)cc21 [Example 11, 6-fluoro-1-(4-methoxybutyl)-N-(2-methylpropyl)-N-[(3S,5R)-5-(morpholin-4-ylcarbonyl)piperidin-3-yl]-1H-benzimidazole-2-carboxamide dihydrochloride]",89
4,"COCCCCn1c(C(=O)N(CC(C)C)[C@@H]2CNC[C@H](C(=O)N3CCCC3)C2)nc2cc(F)ccc21 [Example 18, 5-fluoro-1-(4-methoxybutyl)-N-(2-methylpropyl)-N-[(3S,5R)-5-(pyrrolidin-1-ylcarbonyl)piperidin-3-yl]-1H-benzimidazole-2-carboxamide dihydrochloride]",89
5,"COCCCCn1c(C(=O)N(CC(C)C)[C@@H]2CNC[C@H](C(=O)N3CCCCC3)C2)nc2ccccc21 [Example 21, 1-(4-methoxybutyl)-N-(2-methylpropyl)-N-[(3S,5R)-5-(piperidin-1-ylcarbonyl)piperidin-3-yl]-1H-benzimidazole-2-carboxamide dihydrochloride]",85
6,"COCCCCn1c(C(=O)N(CC(C)C)[C@@H]2CNC[C@H](C(N)=O)C2)nc2ccccc21 [Example 25, N-[(3S,5R)-5-carbamoylpiperidin-3-yl]-1-(4-methoxybutyl)-N-(2-methylpropyl)-1H-benzimidazole-2-carboxamide dihydrochloride]",79
7,"COCCCCn1c(C(=O)N(CC(C)C)[C@@H]2CNC[C@H](C(=O)O)C2)nc2ccccc21 [Example 33, (3R,5S)-5-[{[1-(4-methoxybutyl)-1H-benzimidazol-2-yl]carbonyl}(2-methylpropyl)amino]piperidine-3-carboxylic acid dihydrochloride]",77
8,"COCCCCn1c(C(=O)N(CC(C)C)[C@@H]2CNC[C@H](CO)C2)nc2ccccc21 [Example 40, N-[(3S,5R)-5-(hydroxymethyl)piperidin-3-yl]-1-(4-methoxybutyl)-N-(2-methylpropyl)-1H-benzimidazole-2-carboxamide dihydrochloride]",75
9,"COCCCCn1c(C(=O)N(CC(C)C)[C@@H]2CNC[C@H](C(C)O)C2)nc2ccccc21 (stereo partly drawn) [Example 42, N-[(3S,5R)-5-(1-hydroxyethyl)piperidin-3-yl]-1-(4-methoxybutyl)-N-(2-methylpropyl)-1H-benzimidazole-2-carboxamide dihydrochloride]",70
10,"COCCCCn1c(C(=O)N(CC(C)C)[C@@H]2CNC[C@H](C(O)COC)C2)nc2ccccc21 (stereo partly drawn) [Example 48, N-[(3S,5R)-5-(1-hydroxy-2-methoxyethyl)piperidin-3-yl]-1-(4-methoxybutyl)-N-(2-methylpropyl)-1H-benzimidazole-2-carboxamide dihydrochloride]",78
11,"COCCCCn1c(C(=O)N(CC(C)C)[C@@H]2CNC[C@H](C(=O)N3CCOCC3)C2)nc2ccc(OC)cc21 [Example 60, 6-methoxy-1-(4-methoxybutyl)-N-(2-methylpropyl)-N-{(3S,5R)-5-(morpholin-4-ylcarbonyl)piperidin-3-yl}-1H-benzimidazole-2-carboxamide dihydrochloride]",85
12,"COCCCCn1c(C(=O)N(CC(C)C)[C@@H]2CNC[C@H](C(=O)N3CCCC3)C2)nc2ccc(OC)cc21 [Example 62, 6-methoxy-1-(4-methoxybutyl)-N-(2-methylpropyl)-N-{(3S,5R)-5-(pyrrolidin-1-ylcarbonyl)piperidin-3-yl}-1H-benzimidazole-2-carboxamide dihydrochloride]",75
13,"COCCCCn1c(C(=O)N(CC(C)C)[C@@H]2CNC[C@H]([C@@H](O)COC)C2)nc2ccccc21.Cl.Cl [Example 73-1, N-{(3S,5R)-5-[(1R)-1-hydroxy-2-methoxyethyl]piperidin-3-yl}-1-(4-methoxybutyl)-N-(2-methylpropyl)-1H-benzimidazole-2-carboxamide dihydrochloride]",77
14,"COCCCCn1c(C(=O)N(CC(C)C)[C@@H]2CNC[C@H]([C@H](O)COC)C2)nc2ccccc21.Cl.Cl [Example 73-2, N-{(3S,5R)-5-[(1S)-1-hydroxy-2-methoxyethyl]piperidin-3-yl}-1-(4-methoxybutyl)-N-(2-methylpropyl)-1H-benzimidazole-2-carboxamide dihydrochloride]",90
15,"COCCCCn1c(C(=O)N(CC(C)C)[C@@H]2CNC[C@H]([C@H](C)O)C2)nc2ccccc21.Cl.Cl [Example 74-1, N-{(3S,5R)-5-[(1S)-1-hydroxyethyl]piperidin-3-yl}-1-(4-methoxybutyl)-N-(2-methylpropyl)-1H-benzimidazole-2-carboxamide dihydrochloride]",90
16,"COCCCCn1c(C(=O)N(CC(C)C)[C@@H]2CNC[C@H]([C@@H](C)O)C2)nc2ccccc21.Cl.Cl [Example 74-2, N-{(3S,5R)-5-[(1R)-1-hydroxyethyl]piperidin-3-yl}-1-(4-methoxybutyl)-N-(2-methylpropyl)-1H-benzimidazole-2-carboxamide dihydrochloride]",54
17,"CC[C@H](O)[C@H]1CNC[C@@H](N(CC(C)C)C(=O)c2nc3ccccc3n2CCCCOC)C1.Cl.Cl [Example 75-1, N-{(3S,5R)-5-[(1S)-1-hydroxypropyl]piperidin-3-yl}-1-(4-methoxybutyl)-N-(2-methylpropyl)-1H-benzimidazole-2-carboxamide dihydrochloride]",86
18,"CC[C@@H](O)[C@H]1CNC[C@@H](N(CC(C)C)C(=O)c2nc3ccccc3n2CCCCOC)C1.Cl.Cl [Example 75-2, N-{(3S,5R)-5-[(1R)-1-hydroxypropyl]piperidin-3-yl}-1-(4-methoxybutyl)-N-(2-methylpropyl)-1H-benzimidazole-2-carboxamide dihydrochloride]",71
19,"CCC(O)[C@H]1CNC[C@@H](N(CC(C)C)C(=O)c2nc3ccccc3n2CCCCOC)C1 (stereo partly drawn) [Example 76, N-[(3S,5R)-5-(1-hydroxypropyl)piperidin-3-yl]-1-(4-methoxybutyl)-N-(2-methylpropyl)-1H-benzimidazole-2-carboxamide dihydrochloride]",79
20,"COCCCCc1c(C(=O)N(CC(C)C)[C@@H]2CNC[C@H](C(=O)N3CCOCC3)C2)nnn1-c1ccccc1F.Cl [Example 233, 1-(2-fluorophenyl)-5-(4-methoxybutyl)-N-(2-methylpropyl)-N-[(3S,5R)-5-(morpholin-4-ylcarbonyl)piperidin-3-yl]-1H-1,2,3-triazole-4-carboxamide hydrochloride]",67
21,"COCCCCc1c(C(=O)N(CC(C)C)[C@@H]2CNC[C@H](C(=O)N3CCOCC3)C2)nnn1-c1ccccc1Cl.Cl [Example 235, 1-(2-chlorophenyl)-5-(4-methoxybutyl)-N-(2-methylpropyl)-N-[(3S,5R)-5-(morpholin-4-ylcarbonyl)piperidin-3-yl]-1H-1,2,3-triazole-4-carboxamide hydrochloride]",62
22,"COCCCCn1c(C(=O)N(CC2CC2)[C@@H]2CNC[C@H](C(=O)N3CCOCC3)C2)nc2ccccc21 [Example 253, N-(cyclopropylmethyl)-1-(4-methoxybutyl)-N-[(3S,5R)-5-(morpholin-4-ylcarbonyl)piperidin-3-yl]-1H-benzimidazole-2-carboxamide dihydrochloride]",77
